Positions count from the first letter of the chain named. Non-standard residues stand in square brackets, D forms with d. Residues, ends and D or L forms follow the SMILES beside them. Nle = CCCC[C@H](N)C(=O)O; βAla = NCCC(=O)O
Key:
Assay type in all cases: cell-based
[1] = target: T1, rat BRS-3 (Rattus norvegicus, UniProt Q8K418); experiment: Calcium mobilization assay (FLIPR), transfected 293EBNA cells
T1 construct: utilized to PCR amplify full-length rat BRS-3 cDNA; expressed in transfected cells; host or cells: 293EBNA cells, pE3 expression vector
T1 sequence (Q8K418 1-399): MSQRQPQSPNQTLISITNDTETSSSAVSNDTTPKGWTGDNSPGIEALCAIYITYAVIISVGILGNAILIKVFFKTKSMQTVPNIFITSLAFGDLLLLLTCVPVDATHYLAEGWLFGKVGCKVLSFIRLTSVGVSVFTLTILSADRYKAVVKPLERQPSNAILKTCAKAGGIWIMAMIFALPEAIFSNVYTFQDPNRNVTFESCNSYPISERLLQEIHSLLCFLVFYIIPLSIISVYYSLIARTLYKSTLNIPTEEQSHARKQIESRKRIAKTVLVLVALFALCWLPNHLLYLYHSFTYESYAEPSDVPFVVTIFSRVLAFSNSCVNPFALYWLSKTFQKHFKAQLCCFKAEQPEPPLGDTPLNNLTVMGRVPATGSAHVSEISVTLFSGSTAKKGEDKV
Procedure: Wild type and mutant BRS-3 constructs were transfected by using lipofectamine reagents (Life Technologies, Rockville, Md.) into 293EBNA cells (Invitrogen, Carlsbad, Calif.) which support episomal replication of plasmid containing Epstein Bar virus OriP segment. Stable cell lines were obtained by selection with 250 ug/ml hygromycin. The cells were maintained as monolayers in Dulbecco's modified Eagle's medium (Life Technologies, Rockville, Md.) supplemented with 10% fetal bovine serum and incubated at 37° C. in a humidified 5% CO2 incubator.
(§1) The functional activity of rat BRS-3 was also studied by measuring the agonist-induced calcium mobilization response using a Fluorescence Imaging Plate Reader (Molecular Devices, Sunnyvale, Calif.). Transfected 293EBNA cells were plated onto poly-D-lysine coated 96-well plates with black wall and clear bottom (Becton Dickinson, Franklin Lakes, N.J.). After 16-48 hr culture, the cells were loaded with 4 uM Fluo-3-AM fluorescent calcium-indicator dye (Molecular Probes, Eugene, OR) in assay buffer (Hank's balanced salts solution, 10 mM HEPES, pH7.4, 0.1% bovine serum albumin, 2.5 mM probenecid).
(§2) The changes in intracellular calcium concentration, as indicated by Fluo-3 fluorescence, were immediately measured by FLIPR. Maximal changes in fluorescence over base line were used to determine agonist response.
(§3) The EC50 values were mean±S.E. calculated from dose-response curves of 3-5 repeated experiments using FLIPR assays.

[2] = target: T2, Rat BRS-3/AMH (RB3-AMH) (Rattus norvegicus, UniProt Q8K418, D306A/P308H/V307M); experiment: Calcium mobilization assay (FLIPR), substitution mutant
T2 construct: expressed in transfected cells; host or cells: 293EBNA cells, pE3 expression vector
T2 sequence (Q8K418 1-399 D306A/V307M/P308H): T1 sequence (Q8K418 1-399) with D306A, V307M, P308H
Text: (§4) Chimeric rat/human BRS-3 genes and substitution mutant rat BRS-3 genes were constructed by using PCR mutagenesis techniques (Fong, T. in Structure-function analysis of G protein coupled receptors, J, Wess, ed, Wiley-Liss, pp. 1-20, (1999)). All the mutant and wild type BRS-3 genes were cloned into pE3 expression vector which contains CMV early promoter, hygromycin-resistance gene and OriP segment from Epstein-Bar virus.
as §1, §2, §3
(§5) To determine which amino acids in the E3 loop of human BRS-3 conferred dYB activity upon rat BRS-3, several substitution BRS-3 mutants were made in which the amino acids in the E3 loop of rat BRS-3 were substituted with residues that match human BRS-3.

[3] = target: T3, Rat BRS-3/IF (RB3-IF) (Rattus norvegicus, UniProt Q8K418, V310I/V311F); experiment: as above
T3 construct: expressed in transfected cells; host or cells: 293EBNA cells, pE3 expression vector
T3 sequence (Q8K418 1-399 V310I/V311F): T1 sequence (Q8K418 1-399) with V310I, V311F
Text: as §4, §1, §2, §3, §5

[4] = target: T4, Rat BRS-3/VD (RB3-VD) (Rattus norvegicus, UniProt Q8K418, A302V/E303D); experiment: as above
T4 construct: expressed in transfected cells; host or cells: 293EBNA cells, pE3 expression vector
T4 sequence (Q8K418 1-399 A302V/E303D): T1 sequence (Q8K418 1-399) with A302V, E303D
Text: as §4, §1, §2, §3, §5

| Compound | difference in dYB potency between human and rodent BRS-3 [1] | lower affinity of rat BRS-3 to dYB than human BRS-3 [1] | improvement of dYB potency in calcium mobilization ([2]; RB3-AMH vs rat BRS-3) | effect of mutation on dYB receptor activity ([3]; RBB3-IF vs rat BRS-3) | effect of mutation on dYB receptor activity ([4]; RBB3-VD vs rat BRS-3) | EC50 [1] | EC50 [2] | EC50 [3] | EC50 [4] |
| --- | --- | --- | --- | --- | --- | --- | --- | --- | --- |
| CCCC[C@H](NC(=O)[C@H](Cc1ccccc1)NC(=O)[C@H](Cc1c[nH]cn1)NC(=O)CCNC(=O)[C@@H](NC(=O)[C@H](C)NC(=O)[C@H](Cc1c[nH]c2ccccc12)NC(=O)[C@H](CCC(N)=O)NC(=O)[C@H](N)Cc1ccc(O)cc1)C(C)C)C(N)=O [dYB, [D-Tyr6-betaAla11-Phe13-Nle14] bombesin (6-14)] (H-[dY]QWAV[βAla]HF[Nle]-NH2) | approximately 1000 fold | approximately 1000 fold | 6 fold | little effect on the receptor activity | little effect on the receptor activity |  |  |  |  |
| CCCC[C@H](NC(=O)[C@H](Cc1ccccc1)NC(=O)[C@H](Cc1cnc[nH]1)NC(=O)CCNC(=O)[C@@H](NC(=O)[C@H](C)NC(=O)[C@H](Cc1c[nH]c2ccccc12)NC(=O)[C@H](CCC(N)=O)NC(=O)[C@H](N)Cc1ccc(O)cc1)C(C)C)C(N)=O [dYB, [D-Tyr6-betaAla11-Phe13-Nle14] bombesin (6-14)] (H-[dY]QWAV[βAla]HF[Nle]-NH2) |  |  |  |  |  | 2.2 ± 0.5 µM | 0.37 ± 0.07 µM | 1.3 ± 0.23 µM | 0.93 ± 0.15 µM |

Source: patent US20050222402A1, “Dna encoding rat bombesin receptor subtype-3 (brs-3) and uses thereof” (priority 2001, published 2005)
